Laboratory results as given in article PMC5742583, “A Functional Analysis on the Interspecies Interaction between Mouse LFA-1 and Human Intercellular Adhesion Molecule-1 at the Cell Level” (Frontiers in Immunology, 2017).
Where no end group is shown, it is not given here.

Experiments:
ICAM-1/LFA-1 interaction = details: cited from earlier work
Procedure: Human and mouse LFA-1-derived peptides (human: CD11a237–261; mouse: CD11a235–259) were purchased from GenScript (Piscataway, USA) without any modification. […] Besides, incubation cells with a mouse antiCD1 ...

[1] = system: gp33-pulsed EL4 cells killed by mouse Tc cells (ICAM-1/LFA-1); assay: CD8+ T cell-mediated cytotoxicity on EL4; type: cell-based; details: preincubation 45 min 37°C, effector:target 10:1, 4 h
human monocytes = assay: Human monocyte adhesion to plastic (MTT); type: cell-based; details: lovastatin 100 µM, 37°C overnight
Procedure: (§1) Monocytes were isolated from human peripheral blood mononuclear cells (PBMCs), obtained from healthy donors (Blood and Tissue Bank of Aragon; approved by the CEICA, number: C.I.PI11/006) by density gradient centrifugation using Ficoll-Paque (GE healthcare). PBMCs were resuspended at a concentration of 2.5 × 10^6 cells/ml in RPMI medium supplemented with 1% heat-inactivated human AB serum (Sigma). Cells were cultured in a Petri dish for 2 h at 37°C 5% CO2. […]
(§2) Freshly isolated monocytes or differentiated macrophages were washed twice with PBS and incubated with trypsin (PAN Biotech) for 30 min at 37°C 5% CO2. […] Next day, every well was washed twice with PBS, complete RPMI medium was added and the number or adherent remaining cells was quantified by a MTT colorimetric test ([38]). […]
(§3) Figure 6 LFA-1 is involved in human macrophage adhesion. […] (B) Macrophage phenotype was analyzed by flow cytometry testing the expression of HL-DR, CD14, CD54, and CD11a. […] Subsequently, every well was washed twice with PBS to remove non-adherent cells and quantification of cell adhesion was carried out by MTT as described in Section “Experimental Procedures.” Values are presented as mean ± SEM of three independent experiments performed by duplicate. […]

human macrophages = assay: Human macrophage adhesion to plastic (MTT); type: cell-based; details: lovastatin 100 µM, 37°C overnight
Procedure: as §1, §2, §3

VLA-4 = details: cited from earlier work
Source text: (§4) In contrast, cell aggregates were clearly visible in cultures after stimulation (Figure 3A, b). […] Macrophage phenotype was confirmed by testing surface antigens by flow cytometry. Monocyte-derived macrophages expressed higher levels of HLA-DR and CD14 than undifferentiated monocytes ([51]). In addition, expression of CD54 (ICAM-1) was diminished in comparison with freshly isolated monocytes (Figure 6B). […] As shown ...

Mac-1 = details: cited from earlier work
Source text: as §4

[2] = system: mouse B cells (ICAM-1/LFA-1 interaction); assay: Homotypic B cell aggregation assay; type: cell-based; details: splenocytes activated with PHA and ionomycin, overnight 37°C
Procedure: To obtain these cells, mice were sacrificed by cervical dislocation, the spleens were removed, and splenocytes were isolated and resuspended in RPMI 10% FBS at a final concentration of 10^6 cells/ml. Cells were treated with 10 µg/ml PHA and 1 µg/ml ionomycin to activate LFA-1 and incubated at 37°C 5% CO2 overnight in flat bottom 96-well plates (10^5 cells) in the presence of peptides from LFA-1 and c-Myc (control) 250 µM, D1D2, D1D2Fc, and human IgG1 10 µg, EGTA 1 mM and lovastatin 100 µM. A qualitative aggregation assay was carried out as described ([36], [41]) with a slight modification. Briefly, positive control stimulated cell samples were arbitrarily assigned a clumping index of 10 and lovastatin samples an index of 1. Test samples were ranked from 1 to 10 based upon degree of clumping relative to stimulated and lovastatin-treated samples. Results were verified by a blind independent rating performed by a second observer.
Fresh mouse B cells were obtained from splenocytes and stimulated with PHA and ionomycin to induce homotypic adhesion. The results were quantified by establishing a clumping index that represents the degree of cell aggregation, which reflects the inhibition efficiency (Figure 3B). Cell aggregation was ranked by a clumping index from 1 to 10 based on the degree of aggregation in comparison with the stimulated cells (positive control, clumping index = 10).
Figure 3 Effect of human (ICAM-1) on the aggregation of mouse spleen cells. (A) Splenocytes isolated from mice were non treated (a) or activated with PHA (b–i) as described in Section “Experimental Procedures” and further incubated overnight with (b) medium; (c) IgG1; (d) c-Myc peptide; (e) EGTA; (f) lovastatin; (g) D1D2; (h) D1D2Fc; (i) mouse LFA-1 peptide CD11a235–259. Images were taken with an optical microscope (original magnification, 10×). Representative images from two independent experiments with similar results are shown. (B) The graph represents the rate of agglutination depending on the inhibitory effect on ICAM-1/LFA-1 interaction. Cells stimulated with PHA and ionomycin, which served as a positive control, were arbitrarily assigned agglutination index 10, which represents a percentage of aggregation between 90 and 100%. Homotypic aggregation was classified from 1 to 10 depending on the degree of aggregation relative to cells stimulated. The result was verified by a second independent observer. Values are presented as mean ± SEM of two separate experiments performed by duplicate. Statistical analysis was performed using two-way analysis of variance with Bonferroni’s posttest comparing with c-Myc peptide control. *p < 0.05; ***p < 0.001.

mouse macrophages = assay: Mouse macrophage adhesion to uncoated plastic (MTT); type: cell-based; details: lovastatin 100 µM, 37°C overnight
Procedure: Mouse macrophages were differentiated from mouse bone marrow as previously described ([37]). Briefly, bone marrow cells isolated from mouse femur were cultured in DMEM 10% FBS, 5% horse serum, and 30% supernatant of L929 cell culture as a source of M-CSF at a density of 10^6/cm^2 for 7–8 days. Macrophage differentiation was analyzed in the same way as human macrophages but using CD11b-APC and CD11c-PE (BD) antibodies.
Freshly isolated monocytes or differentiated macrophages were washed twice with PBS and incubated with trypsin (PAN Biotech) for 30 min at 37°C 5% CO2. After that, cells were scraped gently from the plate and resuspended at a final concentration of 10^6 cells/ml in complete RPMI medium. Subsequently, 10^5 macrophages and 5 × 10^5 monocytes were added to each well and incubated with several concentrations of human D1D2, D1D2Fc, D1D5Fc, mouse D1D5Fc, control human IgG1 20 µg or lovastatin 100 µM at 37°C 5% CO2 overnight. Next day, every well was washed twice with PBS, complete RPMI medium was added and the number or adherent remaining cells was quantified by a MTT colorimetric test ([38]). In some experiments, plates previously coated with human and mouse D1D5Fc were used. […]
Figure 7 Human intercellular adhesion molecule (ICAM)-1 blocks LFA-1-mediated mouse macrophage cell adhesion. […] (B) Macrophage phenotype was analyzed by flow cytometry testing the expression CD11b and CD11c. […]

[3] = system: K562 cells killed by human NK cells (ICAM-1/LFA-1); assay: NK cell-mediated cytotoxicity on K562; type: cell-based; details: peptide 250 µM, preincubation 45 min 37°C; effector:target 3:1, 4 h; annexin-V/7-AAD by FACS; vs c-Myc control; two experiments by duplicate
Procedure: The effect of human and mouse peptides derived from LFA-1 on ICAM-1/LFA-1 dependent cell–cell contact was analyzed by performing a cell cytotoxicity assay using human primary NK cells and the NK cell sensitive human leukemia K562. Primary activated human NK cells were generated by culturing PBMCs with mitomycin C inactivated R69 cells for 5 days and enriched by MACS using anti-CD56 antibodies as previously described ([39]). Cell cytotoxicity induced by NK cells on K562 was analyzed by flow cytometry as previously described ([39]). Briefly, K562 cells were preincubated with medium alone, in the presence of 250 µM of human and mouse peptides from LFA-1 or D1D2 (15 µg) for 45 min at 37°C. Then, NK cells were added at 3:1 effector:target cell ratio and incubated for 4 h at 37°C, 5% CO2. Subsequently, phosphatidylserine exposure and 7-AAD uptake were analyzed by FACS using the annexin-V/7-AAD kit from Immunostep. As a control, the cells were incubated alone with the inhibitors to evaluate their possible toxicity, which was not significant in any case.
Figure 4 Inhibition of natural killer (NK) cell-mediated cytotoxicity by human intercellular adhesion molecule-1. […] Cell death was analyzed by measuring translocation of PS by flow cytometry in the negative population for CFSE as described in experimental procedures. […]

D1D2Fc = molecular target: T1, D1D2Fc (Homo sapiens, UniProt P05362); assay: Isothermal titration calorimetry (ITC); details: VP-ITC, D1D2Fc 12 µM titrated with peptide 150 µM, PBS, 25°C, 1:n interaction model, single type of binding sites, nonlinear regression, read-out: dissociation constant (KD)
T1 construct: The synthetic first two domains of ICAM-1 alone (D1D2) or linked with human IgG1 Fc region (D1D2Fc) were expressed in Escherichia coli; made in house; host or cells: Escherichia coli
Procedure: The ability of the human chimera D1D2Fc to interact with a peptide derived from its natural ligand LFA-1 in mouse was analyzed by ITC on a VP-ITC calorimeter (MicroCal) at 25°C as indicated previously ([34]). Briefly, 2.2 ml of a 12-µM solution of D1D2Fc and 0.5 ml of a 150-µM solution of peptide were prepared in PBS and degassed. Each assay consisted of a series of 28 injections of peptide solution of 10 µl each (with a 4-µl first injection) at 400 s intervals under constant stirring (459 rpm). The thermal power required to keep the cell at a constant temperature is measured, so that it provides the heat associated with each ligand injection after integrating the signal over time. The thermodynamic parameters of protein–peptide interactions (affinity, enthalpy, and entropy changes) as well as the stoichiometry were estimated by using nonlinear regression analysis. Data were analyzed using the software developed and implemented in Origin 7.0 (OriginLab).
Figure 1 Interaction of LFA-1 peptide with D1D2Fc by isothermal titration calorimetry. Purified D1D2Fc (12 µM) was titrated with a peptide derived from the binding site of mouse LFA-1 (CD11a235–259; 150 µM). The assay was performed in PBS buffer at 25°C. The nonlinear regression analysis done as described in Section “Experimental Procedures” provided a dissociation constant of 70 nM.

T1 sequence (P05362 with tags, fused parts or gaps limits assumed): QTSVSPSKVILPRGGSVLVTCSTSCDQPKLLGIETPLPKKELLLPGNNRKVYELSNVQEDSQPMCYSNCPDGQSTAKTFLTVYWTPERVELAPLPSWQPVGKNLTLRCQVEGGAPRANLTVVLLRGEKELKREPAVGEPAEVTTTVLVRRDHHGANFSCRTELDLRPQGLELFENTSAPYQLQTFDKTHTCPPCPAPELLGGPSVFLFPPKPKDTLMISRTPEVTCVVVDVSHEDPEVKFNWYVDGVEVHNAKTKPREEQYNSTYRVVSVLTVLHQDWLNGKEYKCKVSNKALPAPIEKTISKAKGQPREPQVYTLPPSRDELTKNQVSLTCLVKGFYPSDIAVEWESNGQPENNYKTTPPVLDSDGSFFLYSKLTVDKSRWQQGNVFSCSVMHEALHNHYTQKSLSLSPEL

Row | Compound | specific block of ICAM-1/LFA-1 interaction (ICAM-1/LFA-1 interaction; ref [42], [43]) | inhibition of Tc cell-mediated cell death of EL4 ([1]; lovastatin 100 µM) | inhibition of adhesion of human monocytes (human monocytes) | inhibition of adhesion of human macrophages (human macrophages) | effect on VLA-4 (VLA-4; ref [42], [43]) | inhibition of VLA-4 (VLA-4; ref [43]) | effect on Mac-1 (Mac-1; ref [42], [43]) | inhibition of Mac-1 (Mac-1; ref [43]) | inhibition of B cell aggregation ([2]; lovastatin 100 µM, assigned clumping index 1) | inhibition of adhesion of mouse macrophages (mouse macrophages) | ability to block ICAM-1/LFA-1 interaction (ICAM-1/LFA-1 interaction; ref [36]) | inhibition of NK cell-mediated cell death of K562 [3] | inhibition of Tc cell-mediated cell death of EL4 ([1]; peptide 250 µM, three experiments by duplicate) | Kd (D1D2Fc) | inhibition of B cell aggregation ([2]; peptide 250 µM, clumping index 1-10, two experiments by duplicate)
1 | CC[C@H](C)C(=O)O[C@H]1C[C@@H](C)C=C2C=C[C@H](C)[C@H](CC[C@@H]3C[C@@H](O)CC(=O)O3)[C@H]21 [lovastatin, reference compound] | specifically block ICAM-1/LFA-1 interaction | inhibited cell death | block completely cell adhesion | block completely cell adhesion | without affecting | not inhibited | without affecting | not inhibited | inhibit completely the aggregation | completely inhibit the adhesion |  |  |  |  | 
2 | ITDGEASDKGNISAAHDITRYIIGI [CD11a235–259] |  |  |  |  |  |  |  |  |  |  | ability to block ICAM-1/LFA-1 interaction | significantly inhibit cell death | able to inhibit cytotoxicity | 70 nM | completely blocked B cell aggregation
